# Assay results: patent publication US10221163B2 (priority 2015, dated 2019)
# Where two headings read alike, the source gives them in different places.
# Legend:
# [1] = tested on: Pseudomonas aeruginosa MB 5919 (OprD+, efflux+); test: microbe, parasite or virus in culture; type: cell-based; conditions: Pseudomonas aeruginosa
# [2] = tested on: Pseudomonas aeruginosa MB 5890 (OprD+, efflux−); test: microbe, parasite or virus in culture; type: cell-based; conditions: Pseudomonas aeruginosa
# [3] = tested on: MB 9798: MB 5919 Trans IMP1 plasmid (OprD+, efflux+); test: microbe, parasite or virus in culture; type: cell-based, Pseudomonas aeruginosa; conditions: Pseudomonas aeruginosa
# [4] = tested on: MB 9799: MB 5890 Trans IMP1 plasmid (OprD+, efflux−); test: microbe, parasite or virus in culture; type: cell-based, Pseudomonas aeruginosa; conditions: Pseudomonas aeruginosa
# [5] = tested on: MB 9861: MB 5919 Trans pFlp-Vim1 plasmid (OprD+, efflux+); test: microbe, parasite or virus in culture; type: cell-based, Pseudomonas aeruginosa; conditions: Pseudomonas aeruginosa
# [6] = tested on: MB9862: MB 5890 Trans pFlp-Vim1 (OprD+, efflux−); test: microbe, parasite or virus in culture; type: cell-based, Pseudomonas aeruginosa; conditions: Pseudomonas aeruginosa
# [7] = tested on: MB 5919 Trans pFlp-Vim2 plasmid (OprD+, efflux+); test: microbe, parasite or virus in culture; type: cell-based, Pseudomonas aeruginosa; conditions: Pseudomonas aeruginosa
# [8] = tested on: MB 5890 Trans pFlp-Vim2 plasmid (OprD+, efflux−); test: microbe, parasite or virus in culture; type: cell-based, Pseudomonas aeruginosa; conditions: Pseudomonas aeruginosa
# IMP-1 = IMP-1 (Serratia marcescens, UniProt P52699); test: biochemical; type: biochemical; conditions: fluorescence assay, CCF2-FA substrate, 2 pM enzyme, 2 hours at 25° C.; read-out: IMP-1 IC50
# Sequence of IMP-1 (P52699 whole entry, looked up, species assumed): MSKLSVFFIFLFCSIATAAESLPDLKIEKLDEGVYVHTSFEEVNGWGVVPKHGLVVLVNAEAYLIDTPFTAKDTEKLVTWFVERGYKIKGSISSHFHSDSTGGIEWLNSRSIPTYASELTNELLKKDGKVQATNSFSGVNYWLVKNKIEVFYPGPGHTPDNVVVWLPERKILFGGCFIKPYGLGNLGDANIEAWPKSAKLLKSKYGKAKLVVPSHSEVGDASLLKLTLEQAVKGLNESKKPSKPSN
# How it was run: (§1)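 Two-hour, 25° C incubation of enzyme with inhibitor and CCF2-FA (7-hydroxycoumarin–cephalosporin–fluorescein). Fluorescence read-out; IC50 via 4-parameter fit.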
# NDM-1 = NDM-1 (Klebsiella pneumoniae, UniProt C7C422); test: biochemical; type: biochemical; conditions: fluorescence assay, CCF2-FA substrate, 1 pM enzyme, 2 hours at 25° C.; read-out: NDM-1 IC50
# Sequence of NDM-1 (C7C422 whole entry, looked up, species assumed): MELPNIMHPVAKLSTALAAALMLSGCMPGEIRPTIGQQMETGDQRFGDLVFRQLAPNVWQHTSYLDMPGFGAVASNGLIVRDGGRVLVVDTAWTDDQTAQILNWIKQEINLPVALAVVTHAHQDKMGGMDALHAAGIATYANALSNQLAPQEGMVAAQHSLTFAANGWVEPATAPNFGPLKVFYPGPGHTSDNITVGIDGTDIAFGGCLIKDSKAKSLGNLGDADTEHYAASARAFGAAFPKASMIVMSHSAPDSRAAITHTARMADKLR
# How it was run: as §1
# VIM-1 = VIM-1 (Pseudomonas aeruginosa (strain ATCC 15692 / DSM 22644 / CIP 104116 / JCM 14847 / LMG 12228 / 1C / PRS 101 / PAO1), UniProt A0A0F7KYQ8); test: biochemical; conditions: CCF2-FA substrate, 30 pM enzyme, 2 hours at 25° C.
# How it was run: as §1
# [9] = tested on: Escherichia coli expressing NDM-1 (CLB30005, CLB30016); type: cell-based; conditions: NDM-1 strain, with imipenem 1 μg/ml
# How it was run: (§2)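 Clinical isolates (E. coli NDM-1, S. marcescens IMP-1, K. pneumoniae VIM-1) were diluted 1:100 from saline suspension into 1.1×CAMHB and exposed to test compound with imipenem at 1 μg/ml. Plates were incubated at 35° C for 22 hours to 24 hours, and growth was read by absorbance.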
# [10] = tested on: Klebsiella pneumoniae expressing VIM-1 (IHMA599644); type: cell-based; conditions: VIM-1 strain IHMA599644, with imipenem 1 μg/ml
# How it was run: as §2
# [11] = tested on: Serratia marcescens expressing IMP-1 (CL5741); type: cell-based; conditions: IMP-1 strain CL5741, with imipenem 1 μg/ml
# How it was run: as §2
# [12] = tested on: Pseudomonas aeruginosa efflux+ (MB9798), IMP-1; type: cell-based; set-up: Concentration of metallo-β-lactamase inhibitor which restores susceptibility of efflux + (MB9798) strain to imipenem: unit not given here; conditions: efflux+ MB9798; imipenem at 2 μg/mL; in the presence of a class A, C, D serine β-lactamase inhibitor closely related to relebactam
# How it was run: (§3)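 Microbroth MIC tests in PAO1-background strains with fixed imipenem and/or ceftazidime, usually at the CLSI breakpoint, plus fixed class A/C β-lactamase inhibitor against AmpC. MBL inhibitor titrated; concentration restoring susceptibility recorded and compared as fold difference between efflux+ MB9798 and efflux− MB9799.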
# [13] = tested on: Pseudomonas aeruginosa efflux− (MB9799), IMP-1; type: cell-based; conditions: efflux− MB9799; imipenem at 2 μg/mL; in the presence of a class A, C, D serine β-lactamase inhibitor closely related to relebactam
# How it was run: as §3
# [14] = tested on: Pseudomonas aeruginosa MB9798 vs MB9799; conditions: fold difference between efflux+ (MB9798) and efflux− (MB9799) strains; imipenem at 2 μg/mL
# How it was run: as §3
# [15] = fluorescence assay, read-out: VIM-1 IC50
# [16] = 95% inhibition of bacterial growth
SMILES,IC50 (IMP-1) [nM],IC50 (NDM-1) [nM],Escherichia coli MITC95 ([9]; 95% inhibition of growth) [µM],Klebsiella pneumoniae MITC95 ([10]; 95% inhibition of growth) [µM],Serratia marcescens MITC95 ([11]; 95% inhibition of growth) [µM],Concentration of metallo-β-lactamase inhibitor which restores susceptibility of efflux + (MB9798) strain to imipenem [12],Concentration of metallo-β-lactamase inhibitor which restores susceptibility of efflux − (MB9799) strain to imipenem [13],Efflux ratio [14],IC50 (VIM-1; [15]) [nM],"Escherichia coli MITC95 [9, 16] [µM]","Klebsiella pneumoniae MITC95 [10, 16] [µM]","Serratia marcescens MITC95 [11, 16] [µM]",further results
CC[C@H]1OC(=O)[C@H](C)[C@@H](O[C@H]2C[C@@](C)(OC)[C@@H](O)[C@H](C)O2)[C@H](C)[C@@H](O[C@@H]2O[C@H](C)C[C@H](N(C)C)[C@H]2O)[C@](C)(O)C[C@@H](C)CN(C)[C@H](C)[C@@H](O)[C@]1(C)O [Azithromycin],–,–,–,–,–,–,–,–,–,–,–,–,MIC [1]: 16 µg/mL; MIC [2]: 1 µg/mL; MIC [3]: 16 µg/mL; MIC [4]: 2 µg/mL; MIC [5]: 32 µg/mL; MIC [6]: 1 µg/mL; MIC [7]: 32 µg/mL; MIC [8]: 1 µg/mL
"Nc1ccc(-c2ccc(S(=O)(=O)NCC3(O)CCNCC3)c(S(N)(=O)=O)c2-c2nn[nH]n2)cn1 [Example 492, 4-(6-aminopyridin-3-yl)-N1-((4-hydroxypiperidin-4-yl)methyl)-3-(2H-tetrazol-5-yl)benzene-1,2 disulfonamide]",0.52,0.305,0.3906,3.125,1.563,1.563,1.563,1.00,–,–,–,–,"IC50 (VIM-1; VIM-1 IC50, fluorescence assay): 0.24 nM"
"Nc1ccc(-c2ccc(S(=O)(=O)NC3CNC3)c(S(N)(=O)=O)c2-c2nn[nH]n2)cn1 [Example 493, 4-(6-aminopyridin-3-yl)-N1-(azetidin-3-yl)-3-(2H-tetrazol-5-yl)benzene-1,2-disulfonamide]",0.403,0.189,0.3906,1.563,0.3906,0.3906,0.7813,0.50,0.179,–,–,–,–
"Nc1ccc(-c2ccc(S(=O)(=O)NCC3(O)CNC3)c(S(N)(=O)=O)c2-c2nn[nH]n2)cn1 [Example 495, 4-(6-aminopyridin-3-yl)-N1-((3-hydroxyazetidin-3-yl)methyl)-3-(2H-tetrazol-5-yl)benzene-1,2-disulfonamide]",0.328,0.215,0.1953,1.563,0.7813,0.7813,0.7813,1.00,0.301,–,–,–,–
"Cl.Cl.NCCCNS(=O)(=O)c1ccc(-c2ccc(N)nc2)c(-c2nn[nH]n2)c1S(N)(=O)=O [Example 496, N1-(3-aminopropyl)-4-(6-aminopyridin-3-yl)-3-(2H-tetrazol-5-yl)benzene-1,2-disulfonamide hydrogen chloride]",0.576,0.2,–,–,–,0.7813,0.7813,1.00,0.175,0.09766,1.563,0.7813,–
"CC1(NS(=O)(=O)c2ccc(-c3ccc(N)nc3)c(-c3nn[nH]n3)c2S(N)(=O)=O)CNC1.Cl.Cl [Example 497, 4-(6-aminopyridin-3-yl)-1-N-(3-methylazetidin-3-yl)-3-(2H-1,2,3,4-tetrazol-5-yl)benzene-1,2-disulfonamide hydrogen]",0.645,0.131,–,–,–,0.7813,0.7813,1.00,0.219,0.3906,1.563,0.7813,–
"C[C@H](CCN)NS(=O)(=O)c1ccc(-c2ccc(N)nc2)c(-c2nn[nH]n2)c1S(N)(=O)=O [Example 498, (R)-N1-(4-aminobutan-2-yl)-4-(6-aminopyridin-3-yl)-3-(1H-tetrazol-5-yl)benzene-1,2-disulfonamide]",0.0763,0.0146,–,–,–,0.7813,0.7813,1.00,0.0512,1.563,3.125,1.563,–
"C[C@@H](CCN)NS(=O)(=O)c1ccc(-c2ccc(N)nc2)c(-c2nn[nH]n2)c1S(N)(=O)=O [Example 499, (S)-N1-(4-aminobutan-2-yl)-4-(6-aminopyridin-3-yl)-3-(1H-tetrazol-5-yl)benzene-1,2-disulfonamide]",1.02,0.555,–,–,–,0.7813,0.7813,1.00,0.291,0.7813,3.125,1.563,–
"NCCN1CC[C@@H](NS(=O)(=O)c2ccc(-c3ccc(N)nc3)c(-c3nn[nH]n3)c2S(N)(=O)=O)C1 [Example 500, (R)—N1-(1-(2-aminoethyl)pyrrolidin-3-yl)-4-(6-aminopyridin-3-yl)-3-(2H-tetrazol-5-yl)benzene-1,2-disulfonamide]",0.164,0.0347,–,–,–,1.563,1.563,1.00,0.071,1.563,3.125,1.563,–
